Source: US20170232083A1, “METHODS OF DIAGNOSIS AND TREATMENT OF CELIAC DISEASE IN CHILDREN” (priority 2014, published 2017)
Several values for one entry are separate records, joined by “and”; a condition that tells them apart may be missing. Identical values can stand only once. Non-standard residues stand in square brackets, D forms with d. pGlu = O=C1CC[C@@H](C(=O)O)N1

Tested on: peripheral blood mononuclear cells obtained from children
Assay: IFNγ ELISpot PBMC assay after oral wheat bread challenge (Examples 1-2)
Type: cell-based, human
Description: An oral wheat bread challenge was conducted in DQ2.5+ children and adolescents having Celiac disease. The age ranges were 3-5, 6-10 and 11-18 years of age. An ELISpot peripheral blood mononucleated cell (PBMC) assay was performed to measure the level of IFNγ released by the PBMCs after being contacted with peptide 1, peptide 2, peptide 3, or a combination thereof. The identities of peptides 1, 2, and 3 are shown below.
The values the rows starting from “Blank (SFU)” and ending at “Pept-1/2/3 (150)” are all spot forming unit (SFU) values. The values in the parentheses in the first column are the concentration of each peptide in micrograms that were added to the PBMCs (e.g., Pept-1 50=50 micrograms of Peptide 1, Pept-1/2/3 50=50 micrograms of each of Peptide 1, Peptide 2, and Peptide 3). Pept-1=Peptide 1, Pept-2=Peptide 2, Pept-3=Peptide 3, the amino acid identities of which are mentioned above. D-Gli=deamidated gliadin. WT-Gli=wild-type gliadin. D-Glut=deamidated gluten. WT-Glut=wild-type gluten.
IFNγ ELISpot responses in 9 older children (11-17 yo) and 6 younger children (3-10 yo) were stimulated by the mixture of peptides 1, 2, and 3 described in Example 1 (each peptide at a concentration of 25 ug/mL) or stimulated by deamidated gliadin (100 ug/mL) after 3-day wheat challenge (r2=0.8, p<0.0001). The ELISpot responses were similar using either the peptide mixture of the deamidated gliadin (FIG. 1).

Q: Which results are given for “EQPFPQPEQPFPWQP ([pGlu]QPFPQPEQPFPWQP-NH2; SMILES NC(=O)CC[C@H](NC(=O)[C@H](Cc1c[nH]c2ccccc12)NC(=O)[C@@H]1CCCN1C(=O)[C@H](Cc1ccccc1)NC(=O)[C@@H]1CCCN1C(=O)[C@H](CCC(N)=O)NC(=O)[C@H](CCC(=O)O)NC(=O)[C@@H]1CCCN1C(=O)[C@H](CCC(N)=O)NC(=O)[C@@H]1CCCN1C(=O)[C@H](Cc1ccccc1)NC(=O)[C@@H]1CCCN1C(=O)[C@H](CCC(N)=O)NC(=O)[C@@H]1CCC(=O)N1)C(=O)N1CCC[C@H]1C(N)=O) [Peptide 2]”?
A: most active peptides in gliadin for children: most active; SFU, IFNγ ELISpot (Subject A, 5.0 × 10^5 cells per well, 50 micrograms, listed as Pept-2): 4 SFU and 3 SFU; SFU, IFNγ ELISpot (Subject A, 5.0 × 10^5 cells per well, 100 micrograms, listed as Pept-2): 5 SFU and 3 SFU; SFU, IFNγ ELISpot (Subject B, 5.0 × 10^5 cells per well, 25 micrograms, listed as Pept-2): 4 SFU and 6 SFU; SFU, IFNγ ELISpot (Subject B, 5.0 × 10^5 cells per well, 50 micrograms, listed as Pept-2): 7 SFU and 8 SFU; SFU, IFNγ ELISpot (Subject C, 5.0 × 10^5 cells per well, 50 micrograms): 4 SFU; SFU, IFNγ ELISpot (Subject D, 4.0 × 10^5 cells per well, 25 micrograms, listed as Pept-2): 17 SFU and 30 SFU; SFU, IFNγ ELISpot (Subject D, 4.0 × 10^5 cells per well, 50 micrograms, listed as Pept-2): 29 SFU and 32 SFU; SFU, IFNγ ELISpot (Subject E, 5.0 × 10^5 cells per well, 25 micrograms, listed as Pept-2): 55 SFU and 45 SFU; SFU, IFNγ ELISpot (Subject E, 5.0 × 10^5 cells per well, 50 micrograms, listed as Pept-2): 45 SFU and 43 SFU; SFU, IFNγ ELISpot (Subject E, 5.0 × 10^5 cells per well, 100 micrograms, listed as Pept-2): 67 SFU and 44 SFU; SFU, IFNγ ELISpot (Subject F, 5.0 × 10^5 cells per well, 25 micrograms, listed as Pept-2): 44 SFU and 59 SFU; SFU, IFNγ ELISpot (Subject F, 5.0 × 10^5 cells per well, 50 micrograms, listed as Pept-2): 64 SFU and 105 SFU; SFU, IFNγ ELISpot (Subject F, 5.0 × 10^5 cells per well, 100 micrograms, listed as Pept-2): 41 SFU and 59 SFU; SFU, IFNγ ELISpot (Subject G, 4.0 × 10^5 cells per well, 25 micrograms): 7 SFU; SFU, IFNγ ELISpot (Subject G, 4.0 × 10^5 cells per well, 100 micrograms, listed as Pept-2): 5 SFU and 9 SFU; SFU, IFNγ ELISpot (Subject I, 5.0 × 10^5 cells per well, 25 micrograms): 7 SFU; SFU, IFNγ ELISpot (Subject I, 5.0 × 10^5 cells per well, 50 micrograms, listed as Pept-2): 5 SFU and 6 SFU; SFU, IFNγ ELISpot (Subject J, 5.0 × 10^5 cells per well, 25 micrograms, listed as Pept-2): 85 SFU and 98 SFU; SFU, IFNγ ELISpot (Subject J, 5.0 × 10^5 cells per well, 50 micrograms, listed as Pept-2): 107 SFU and 83 SFU; SFU, IFNγ ELISpot (Subject J, 5.0 × 10^5 cells per well, 100 micrograms, listed as Pept-2): 81 SFU and 90 SFU; SFU, IFNγ ELISpot (Subject K, 3.2 × 10^5 cells per well, 25 micrograms, listed as Pept-2): 17 SFU and 22 SFU; SFU, IFNγ ELISpot (Subject K, 3.2 × 10^5 cells per well, 50 micrograms, listed as Pept-2): 19 SFU and 18 SFU; SFU, IFNγ ELISpot (Subject K, 3.2 × 10^5 cells per well, 100 micrograms, listed as Pept-2): 23 SFU and 15 SFU; SFU, IFNγ ELISpot (Subject L, 3.5 × 10^5 cells per well, 25 micrograms, listed as Pept-2): 5 SFU and 4 SFU; SFU, IFNγ ELISpot (Subject L, 3.5 × 10^5 cells per well, 100 micrograms, listed as Pept-2): 2 SFU and 4 SFU; SFU, IFNγ ELISpot (Subject M, 2.3 × 10^5 cells per well, 25 micrograms, listed as Pept-2): 28 SFU and 27 SFU; SFU, IFNγ ELISpot (Subject M, 2.3 × 10^5 cells per well, 50 micrograms, listed as Pept-2): 26 SFU and 29 SFU; SFU, IFNγ ELISpot (Subject M, 2.3 × 10^5 cells per well, 100 micrograms, listed as Pept-2): 32 SFU and 24 SFU; SFU, IFNγ ELISpot (Subject N, 2.4 × 10^5 cells per well, 100 micrograms, listed as Pept-2): 4 SFU and 7 SFU; SFU, IFNγ ELISpot (Subject P, 3.0 × 10^5 cells per well, 0.5 micrograms, listed as Pept-2): 10 SFU and 8 SFU; SFU, IFNγ ELISpot (Subject P, 3.0 × 10^5 cells per well, 1 micrograms, listed as Pept-2): 18 SFU and 11 SFU; SFU, IFNγ ELISpot (Subject P, 3.0 × 10^5 cells per well, 5 micrograms, listed as Pept-2): 19 SFU and 15 SFU; SFU, IFNγ ELISpot (Subject Q, 3.0 × 10^5 cells per well, 0.5 micrograms, listed as Pept-2): 44 SFU and 51 SFU; SFU, IFNγ ELISpot (Subject Q, 3.0 × 10^5 cells per well, 1 micrograms, listed as Pept-2): 31 SFU and 41 SFU; SFU, IFNγ ELISpot (Subject Q, 3.0 × 10^5 cells per well, 2.5 micrograms, listed as Pept-2): 44 SFU and 51 SFU; SFU, IFNγ ELISpot (Subject Q, 3.0 × 10^5 cells per well, 5 micrograms, listed as Pept-2): 30 SFU; SFU, IFNγ ELISpot (Subject R, 3.0 × 10^5 cells per well, 0.1 micrograms, listed as Pept-2): 18 SFU and 20 SFU; SFU, IFNγ ELISpot (Subject R, 3.0 × 10^5 cells per well, 0.5 micrograms, listed as Pept-2): 16 SFU and 14 SFU; SFU, IFNγ ELISpot (Subject R, 3.0 × 10^5 cells per well, 1 micrograms, listed as Pept-2): 15 SFU and 11 SFU; SFU, IFNγ ELISpot (Subject R, 3.0 × 10^5 cells per well, 5 micrograms, listed as Pept-2): 16 SFU; SFU, IFNγ ELISpot (Subject S, 3.0 × 10^5 cells per well, 0.5 micrograms, listed as Pept-2): 2 SFU and 1 SFU; SFU, IFNγ ELISpot (Subject S, 3.0 × 10^5 cells per well, 1 micrograms, listed as Pept-2): 5 SFU and 3 SFU; SFU, IFNγ ELISpot (Subject S, 3.0 × 10^5 cells per well, 2.5 micrograms, listed as Pept-2): 2 SFU and 3 SFU; SFU, IFNγ ELISpot (Subject S, 3.0 × 10^5 cells per well, 5 micrograms, listed as Pept-2): 5 SFU; SFU, IFNγ ELISpot (Subject T, 3.0 × 10^5 cells per well, 0.1 micrograms, listed as Pept-2): 33 SFU and 47 SFU; SFU, IFNγ ELISpot (Subject T, 3.0 × 10^5 cells per well, 0.5 micrograms, listed as Pept-2): 34 SFU and 39 SFU; SFU, IFNγ ELISpot (Subject T, 3.0 × 10^5 cells per well, 1 micrograms, listed as Pept-2): 41 SFU and 51 SFU; SFU, IFNγ ELISpot (Subject T, 3.0 × 10^5 cells per well, 2.5 micrograms, listed as Pept-2): 49 SFU and 56 SFU; SFU, IFNγ ELISpot (Subject T, 3.0 × 10^5 cells per well, 5 micrograms, listed as Pept-2): 68 SFU; SFU, IFNγ ELISpot (Subject U, 3.0 × 10^5 cells per well, 0.1 micrograms, listed as Pept-2): 8 SFU and 6 SFU; SFU, IFNγ ELISpot (Subject U, 3.0 × 10^5 cells per well, 0.5 micrograms, listed as Pept-2): 8 SFU and 12 SFU; SFU, IFNγ ELISpot (Subject U, 3.0 × 10^5 cells per well, 1 micrograms, listed as Pept-2): 13 SFU and 15 SFU; SFU, IFNγ ELISpot (Subject U, 3.0 × 10^5 cells per well, 2.5 micrograms, listed as Pept-2): 26 SFU and 33 SFU; SFU, IFNγ ELISpot (Subject U, 3.0 × 10^5 cells per well, 5 micrograms, listed as Pept-2): 28 SFU; T cell response in PBMC samples from children after gluten challenge (general increase in SFU in each child, Tables 2-5): induce a T cell response
